Test results taken from patent US8871756B2 (Hoffmann-La Roche Inc., priority 2011, dated 2014).
Where a name gives a salt, the structure may show the parent alone.

System: RSV Long strain
Assay: Viral cytopathic effect (CPE) assay, anti-RSV activity
Format: cell-based, Respiratory Syncytial Virus
Conditions: RSV Long strain (ATCC), cell viability after 6 days, Cell Counting kit-8
Method in brief: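 EC50 was derived from CCK-8 viability at 450/630 nm measured 6 days post-infection. Infection used enough RSV Long strain for approximately 80–90% cytopathic effect, in the presence of half-log serially diluted compound. Cells were plated the day before at 6×10^3 per well in DMEM/10% FBS.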

[1] = human respiratory syncytial virus, 144 h

Row | EC50 [1] [µM] | EC50 [µM] | Compound
1 | 1.08 | – | Cc1ccc2nc(N3CCS(=O)(=O)c4ccccc4C3)cc(NC(=O)c3ccccc3)c2c1 [Example 3-59, N-[2-(1,1-Dioxido-2,3-dihydro-1,4-benzothiazepin-4(5H)-yl)-6-methylquinolin-4-yl]benzamide]
2 | 0.463 | – | Cc1ccc2nc(N3CCCc4cc(F)ccc4C3)cc(NCCN)c2c1 [Example 118-13, N-[2-(7-Fluoro-1,3,4,5-tetrahydro-2H-2-benzazepin-2-yl)-6-methylquinolin-4-yl]ethane-1,2-diamine]
3 | 0.004 | – | Cc1ccc2nc(N3CC[S+]([O-])c4ccccc4C3)nc(NC3(CN)COC3)c2c1 (centres unmarked) [Example 91, N-[3-(Aminomethyl)oxetan-3-yl]-6-methyl-2-(1-oxido-2,3-dihydro-1,4-benzothiazepin-4(5H)-yl)quinazolin-4-amine]
4 | 8.87 | – | Cc1ccc2nc(N3CCS(=O)(=O)c4ccccc4C3)cc(N3CCOCC3)c2c1 [Example 9-4, 4-[6-Methyl-4-(morpholin-4-yl)quinolin-2-yl]-2,3,4,5-tetrahydro-1,4-benzothiazepine 1,1-dioxide]
5 | 0.975 | – | Cc1ccc2nc(N3CCC(F)(F)c4ccccc4C3)nc(NCC3(CN)CSC3)c2c1 [Example 114-2, N-{[3-(Aminomethyl)thietan-3-yl]methyl}-2-(5,5-difluoro-1,3,4,5-tetrahydro-2H-2-benzazepin-2-yl)-6-methylquinazolin-4-amine]
6 | 1.94 | – | Cc1ccc2nc(N3CCS(=O)(=O)c4ccccc4C3)cc(NCC[S+](C)[O-])c2c1 (centres unmarked) [Example 74, 2-(1,1-Dioxido-2,3-dihydro-1,4-benzothiazepin-4(5H)-yl)-6-methyl-N-[2-(methylsulfinyl)ethyl]quinolin-4-amine]
7 | 0.022 | – | Cc1ccc2nc(N3CCS(=O)(=O)c4ccccc4C3)cc(NC3CCCNC3)c2c1 (centres unmarked) [Example 3-40, 2-(1,1-Dioxido-2,3-dihydro-1,4-benzothiazepin-4(5H)-yl)-6-methyl-N-(piperidin-3-yl)quinolin-4-amine]
8 | 0.021 | – | Cc1ccc2nc(N3CCS(=O)(=O)c4ccccc4C3)cc(NCCN)c2c1F [Example 9-21, N-[2-(1,1-Dioxido-2,3-dihydro-1,4-benzothiazepin-4(5H)-yl)-5-fluoro-6-methylquinolin-4-yl]ethane-1,2-diamine]
9 | 0.006 | – | Cc1ccc2nc(N3CC[S+]([O-])c4ccccc4C3)nc(NCC(F)CN)c2c1 (centres unmarked) [Example 55-3, 2-Fluoro-N-[6-methyl-2-(1-oxido-2,3-dihydro-1,4-benzothiazepin-4(5H)-yl)quinazolin-4-yl]propane-1,3-diamine]
10 | 0.057 | – | CSc1ccc2nc(N3CCS(=O)(=O)c4ccccc4C3)cc(NCCCN)c2c1 [Example 9-33, N-[2-(1,1-Dioxido-2,3-dihydro-1,4-benzothiazepin-4(5H)-yl)-6-(methylsulfanyl)quinolin-4-yl]propane-1,3-diamine]
11 | 0.099 | – | Cc1ccc2nc(N3CCC(F)(F)c4ccccc4C3)cc(NC3CCNC3)c2c1 (centres unmarked) [Example 110-10]
12 | 0.015 | – | Cc1ccc2nc(N3CCS(=O)(=O)c4ccccc4C3)cc(NCC3CCN3)c2c1 (centres unmarked) [Example 21-3, N-(Azetidin-2-ylmethyl)-2-(1,1-dioxido-2,3-dihydro-1,4-benzothiazepin-4(5H)-yl)-6-methylquinolin-4-amine]
13 | 0.223 | – | NCC(O)CNc1cc(N2CCCc3ccccc3C2)nc2ccccc12 (centres unmarked) [Example 118-8, 1-Amino-3-{[2-(1,3,4,5-tetrahydro-2H-2-benzazepin-2-yl)quinolin-4-yl]amino}propan-2-ol trifluoroacetate (salt)]
14 | 0.037 | – | CCc1ccc2nc(N3CCS(=O)(=O)c4ccccc4C3)cc(NCCN)c2c1 [Example 9-10, N-[2-(1,1-Dioxido-2,3-dihydro-1,4-benzothiazepin-4(5H)-yl)-6-ethylquinolin-4-yl]ethane-1,2-diamine]
15 | 0.192 | – | Cc1ccc2nc(N3CCS(=O)(=O)c4ccccc4C3)cc(NC(=O)CO)c2c1 [Example 47-9, N-[2-(1,1-Dioxido-2,3-dihydro-1,4-benzothiazepin-4(5H)-yl)-6-methylquinolin-4-yl]-2-hydroxyacetamide]
16 | 0.616 | – | NCCCNc1cc(N2CCS(=O)(=O)c3ccccc3C2)nc2ccc(C(F)(F)F)cc12 [Example 17-2, N-[2-(1,1-Dioxido-2,3-dihydro-1,4-benzothiazepin-4(5H)-yl)-6-(trifluoromethyl)quinolin-4-yl]propane-1,3-diamine]
17 | 0.007 | – | Cc1ccc2nc(N3CCS(=O)(=O)c4ccccc4C3)cc(NC3CNCC3F)c2c1 (stereo not drawn) [Example 28-1, 2-(1,1-Dioxido-2,3-dihydro-1,4-benzothiazepin-4(5H)-yl)-N-trans-(4-fluoropyrrolidin-3-yl)-6-methylquinolin-4-amine]
18 | 7.81 | – | Cc1ccc2nc(N3CCS(=O)(=O)c4ccccc4C3)cc(NCCCCCCCN)c2c1 [Example 3-30, N-[2-(1,1-Dioxido-2,3-dihydro-1,4-benzothiazepin-4(5H)-yl)-6-methylquinolin-4-yl]heptane-1,7-diamine]

Row | EC50 [1] [µM] | EC50 [µM] | Compound
19 | 0.00088 | – | NCC1(CNc2nc(N3CC[S+]([O-])c4ccccc4C3)nc3ccc(CO)cc23)COC1 (centres unmarked) [Example 109-1, [4-({[3-(Aminomethyl)oxetan-3-yl]methyl}amino)-2-(1-oxido-2,3-dihydro-1,4-benzothiazepin-4(5H)-yl)quinazolin-6-yl]methanol]
20 | 0.054 | – | N[C@@H]1CN(c2cc(N3CCS(=O)(=O)c4ccccc4C3)nc3ccc(Cl)cc23)C[C@H]1O (relative stereo) [Example 19-6, trans-4-Amino-1-[6-chloro-2-(1,1-dioxido-2,3-dihydro-1,4-benzothiazepin-4(5 H)-yl)quinolin-4-yl]pyrrolidin-3-ol]
21 | 0.007 | – | Cc1ccc2nc(N3CCS(=O)(=O)c4cc(F)ccc4C3)cc(NCC3(N)COC3)c2c1 [Example 1-2, N-[(3-Aminooxetan-3-yl)methyl]-2-(8-fluoro-1,1-dioxido-2,3-dihydro-1,4-benzothiazepin-4(5H)-yl)-6-methylquinolin-4-amine]
22 | 0.642 | – | Cc1ccc2c(NCCCN)cc(N3CCS(=O)(=O)c4ccccc4C3)nc2c1 [Example 17-7, N-[2-(1,1-Dioxido-2,3-dihydro-1,4-benzothiazepin-4(5H)-yl)-7-methylquinolin-4-yl]propane-1,3-diamine]
23 | 0.021 | – | Cc1cc2c(NCC3(N)COC3)cc(N3CCS(=O)(=O)c4ccccc4C3)nc2cc1F [Example 3-24, N-[(3-Aminooxetan-3-yl)methyl]-2-(1,1-dioxido-2,3-dihydro-1,4-benzothiazepin-4(5H)-yl)-7-fluoro-6-methylquinolin-4-amine]
24 | 0.272 | – | Cc1ccc2nc(N3CC[S+]([O-])c4ccccc4C3)cc(NCC(O)CO)c2c1 (centres unmarked) [Example 32-4, 3-{[6-Methyl-2-(1-oxido-2,3-dihydro-1,4-benzothiazepin-4(5H)-yl)quinolin-4-yl]amino}propane-1,2-diol]
25 | 0.695 | – | NCCNc1cc(N2CCCc3cc(F)ccc3C2)nc2ccccc12 [Example 118-16, N-[2-(7-Fluoro-1,3,4,5-tetrahydro-2H-2-benzazepin-2-yl)quinolin-4-yl]ethane-1,2-diamine]
26 | 0.007 | – | Cc1ccc2nc(N3CCS(=O)(=O)c4ccccc4C3)cc(NCCNCCO)c2c1 [Example 3-42, 2-[(2-{[2-(1,1-Dioxido-2,3-dihydro-1,4-benzothiazepin-4(5H)-yl)-6-methylquinolin-4-yl]amino}ethyl)amino]ethanol]
27 | 0.061 | – | NCC(F)(F)CNc1cc(N2CC[S+]([O-])c3ccccc3C2)nc2ccc(Cl)cc12 (centres unmarked) [Example 18-6, N-[6-Chloro-2-(1-oxido-2,3-dihydro-1,4-benzothiazepin-4(5H)-yl)quinolin-4-yl]-2,2-difluoropropane-1,3-diamine]
28 | 0.536 | – | Cc1ccc2nc(N3CCS(=O)(=O)c4ccccc4C3)cc(NCCN3CCOCC3)c2c1 [Example 12-1, 2-(1,1-Dioxido-2,3-dihydro-1,4-benzothiazepin-4(5H)-yl)-6-methyl-N-[2-(morpholin-4-yl)ethyl]quinolin-4-amine]
29 | 0.275 | – | Cc1ccc2nc(N3CCS(=O)(=O)c4ccccc4C3)cc(NCCN3CCCCC3)c2c1 [Example 9-6, 2-(1,1-Dioxido-2,3-dihydro-1,4-benzothiazepin-4(5H)-yl)-6-methyl-N-[2-(piperidin-1-yl)ethyl]quinolin-4-amine]
30 | 2.61 | – | Cc1ccc2nc(N3CCC(F)(F)c4ccccc4C3)cc(NCCOCCN)c2c1 [Example 110-2, N-[2-(2-Aminoethoxy)ethyl]-2-(5,5-difluoro-1,3,4,5-tetrahydro-2H-2-benzazepin-2-yl)-6-methylquinolin-4-amine]
31 | 1.18 | – | Cc1ccc2nc(N3CCC(F)(F)c4ccccc4C3)cc(NCCN3CCNCC3)c2c1 [Example 110-7, 2-(5,5-Difluoro-1,3,4,5-tetrahydro-2H-2-benzazepin-2-yl)-6-methyl-N-[2-(piperazin-1-yl)ethyl]quinolin-4-amine]
32 | 0.071 | – | Cc1ccc2nc(N3CCS(=O)(=O)c4ccccc4C3)cc(NC3(CNC(=O)C(F)(F)F)COC3)c2c1 [Example 70, N-[(3-{[2-(1,1-Dioxido-2,3-dihydro-1,4-benzothiazepin-4(5H)-yl)-6-methylquinolin-4-yl]amino}oxetan-3-yl)methyl]-2,2,2-trifluoroacetamide]
33 | 0.005 | – | Cc1ccc2nc(N3CCS(=O)(=O)c4ccccc4C3)cc(NC[C@H](N)CO)c2c1 [Example 37-1, (2S)-2-Amino-3-{[2-(1,1-dioxido-2,3-dihydro-1,4-benzothiazepin-4(5H)-yl)-6-methylquinolin-4-yl]amino}propan-1-ol]
34 | – | 0.014 | Cc1ccc2nc(N3CC[S+]([O-])c4ccccc4C3)cc(NCC3(N)COC3)c2c1 (single isomer, unassigned; (-)) [Example 18-3, (−)-N-[(3-Aminooxetan-3-yl)methyl]-6-methyl-2-[1-oxido-2,3-dihydro-1,4-benzothiazepin-4(5H)-yl]quinolin-4-amine]
35 | 0.166 | – | NCCNc1cc(N2CCCc3ccc(F)cc3C2)nc2ccccc12 [Example 118-7, N-[2-(8-Fluoro-1,3,4,5-tetrahydro-2H-2-benzazepin-2-yl)quinolin-4-yl]ethane-1,2-diamine]
